Each structure is given as a SMILES string.

Our source for the Dmax values is patent US11739101B2, “Bifunctional degraders of hematopoietic progenitor kinase and therapeutic uses thereof” (Nurix Therapeutics, Inc., priority 2020, dated 2023).

The target in the experiment is T1, HPK1 (Homo sapiens, UniProt Q92918).
T1 construct: A HiBiT tag was introduced by CRISPR on the N terminus of HPK1 in Jurkat cells; host or cells: Jurkat (ATCC TIB-152), monoclonal CRISPR HiBiT knock-in line
T1 sequence (Q92918 whole entry): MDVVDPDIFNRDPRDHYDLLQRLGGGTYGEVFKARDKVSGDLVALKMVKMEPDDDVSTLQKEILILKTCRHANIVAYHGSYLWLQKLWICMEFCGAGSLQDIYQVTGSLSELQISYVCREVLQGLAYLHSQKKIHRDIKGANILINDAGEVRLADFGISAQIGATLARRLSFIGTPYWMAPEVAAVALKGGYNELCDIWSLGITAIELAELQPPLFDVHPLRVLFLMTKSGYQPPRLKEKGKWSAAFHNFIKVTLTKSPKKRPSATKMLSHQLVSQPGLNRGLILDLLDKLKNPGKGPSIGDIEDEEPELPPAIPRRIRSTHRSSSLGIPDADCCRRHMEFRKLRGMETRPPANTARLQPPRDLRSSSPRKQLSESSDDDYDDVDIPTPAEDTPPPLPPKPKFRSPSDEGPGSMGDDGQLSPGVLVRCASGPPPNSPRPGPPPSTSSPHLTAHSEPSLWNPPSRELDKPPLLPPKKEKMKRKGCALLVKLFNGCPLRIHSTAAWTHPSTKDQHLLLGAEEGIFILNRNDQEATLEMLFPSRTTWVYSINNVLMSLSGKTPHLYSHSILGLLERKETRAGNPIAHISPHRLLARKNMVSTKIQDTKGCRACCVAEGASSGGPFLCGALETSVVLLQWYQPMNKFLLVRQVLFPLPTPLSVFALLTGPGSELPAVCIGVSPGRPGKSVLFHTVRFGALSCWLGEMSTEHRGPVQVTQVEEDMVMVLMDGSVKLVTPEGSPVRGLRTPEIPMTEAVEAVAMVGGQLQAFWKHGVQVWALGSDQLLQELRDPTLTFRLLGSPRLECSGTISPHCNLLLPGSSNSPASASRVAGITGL
The experiment can be described thus: HPK1 Cellular HiBiT Degradation Assay. The experiment is classed as cell-based. The settings on record: HiBiT-tagged HPK1 Jurkat cells, 24 hours, 10 uM to 0.1 nM; Dmax = 100 minus lowest % HPK1 remaining vs DMSO vehicle. As for the experimental part:
HiBiT HPK1 Jurkat cell lines were used to evaluate the total protein levels of HPK1 in a robust human cellular high throughput format. The level of HPK1 remaining following treatment with HPK1 CTMs is reported as Dmax (maximum degradation) achieved at 24 hours when compared to vehicle treated controls. […] These decreases were not a result of cytotoxicity measured by a parallel viability assessment (CTG). See also Table 1.
A HiBiT tag was introduced by CRISPR on the N terminus of HPK1 in Jurkat cells (ATCC® TIB-152) to allow quantitation of HPK1 protein levels in a monoclonal human cell line. Cells were plated at 1×10^6 cells/mL, 30 uL/well (3×10^4 cells/well) in complete RPMI 1640 (10% heat inactivated FBS, 1% L-glutamine) in 384-well assay plates (Corning, cat. no. 3570). HPK1 chimeric targeting molecules (CTMs) were added in an 11-point dilution series (3.16-fold) with a final assay concentration range of 10 uM to 0.1 nM. The parental Jurkat cell line, with no HiBiT insertion, was included in the assay as a background control. Cells treated with a DMSO vehicle control were used to determine the maximum signal defining 100% HPK1 in the cell. Cells were incubated for 24 hours at 37° C./5% CO2. Following incubation, 30 uL of complete Nano-Glo HiBiT Lytic Detection Reagent (Promega cat. no. N3040) was added. Cells were incubated for 10 minutes at room temperature and luminescence was read on an EnVision plate reader (Perkin Elmer, 0.1 sec per well). Parallel plates were assessed for viability using Cell Titer Glo (Promega) and read on an EnVision plate reader to ensure results were not the effect of cytotoxicity. Percent HPK1 remaining per sample was calculated as follows: […]
% HPK1 remaining values were plotted as a function of compound concentration and curves were fit using the Prism (GraphPad) equation “log(inhibitor) vs response−Variable slope (four parameters)”. Dmax values were calculated by identifying the lowest % remaining and subtracting from 100. Dmax values are provided in Table 1, wherein A>65%, 45%≤B≤65% and C<45%.
Background: The HiBiT peptide binds its large partner to form an active luciferase.
As to `Cc1cc(F)c(Nc2nc(-c3ccc4c(c3)N([C@H]3C[C@@H](N5CCCCC5)C3)C(=O)C43CCN(C(=O)CCN4CCC(CCCCC(=O)N[C@H](C(=O)N5C[C@H](O)C[C@H]5C(=O)N[C@@H](C)c5ccc(-c6scnc6C)cc5)C(C)(C)C)CC4)CC3)cc3ncn(C(C)C)c23)cc1C(=O)NC(C)C` [Example 20, (2S,4R)-1-((S)-2-(5-(1-(3-(6-(4-((2-fluoro-5-(isopropylcarbamoyl)-4-methylphenyl)amino)-3-isopropyl-3H-imidazo[4,5-c]pyridin-6-yl)-2-oxo-1-((1s,3s)-3-(piperidin-1-yl)cyclobutyl)spiro[indoline-3,4′-piperidin]-1′-yl)-3-oxopropyl)piperidin-4-yl)pentanamido)-3,3-dimethylbutanoyl)-4-hydroxy-N—((S)-1-(4-(4-methylthiazol-5-yl)phenyl)ethyl)pyrrolidine-2-carboxamide], the maximal degradation (Dmax) (as a rule, the largest share of the target that was removed) was less than 45%.
`Cc1cc(F)c(Nc2nc(-c3ccc4c(c3)N([C@H]3C[C@@H](N5CCCCC5)C3)C(=O)C43CCN(C(=O)CN4CCN(CCCc5cccc6c5C(=O)N(C5CCC(=O)NC5=O)C6=O)CC4)CC3)cc3ncn(C(C)C)c23)cc1C(=O)NC(C)C` (stereo partly shown) [Example 21, 5-{[6-(1′-{2-[4-(3-{2-[2,6-dioxopiperidin-3-yl]-1,3-dioxo-2,3-dihydro-1H-isoindol-4-yl}propyl)piperazin-1-yl]acetyl}-2-oxo-1-[(1s,3s)-3-(piperidin-1-yl)cyclobutyl]-1,2-dihydrospiro[indole-3,4′-piperidin]-6-yl)-3-(propan-2-yl)-3H-imidazo[4,5-c]pyridin-4-yl]amino}-4-fluoro-2-methyl-N-(propan-2-yl)benzamide] had a Dmax of less than 45%.
The compound `Cc1cc(F)c(Nc2nc(-c3ccc4c(c3)N([C@H]3C[C@@H](N5CCCCC5)C3)C(=O)C43CCN(C(=O)CN4CCC5(CC4)CN(c4ccc6c(c4)C(=O)N(C4CCC(=O)NC4=O)C6=O)C5)CC3)cc3ncn(C(C)C)c23)cc1C(=O)NC(C)C` (stereo partly shown) [Example 22, 5-[(6-{1′-[2-(2-{2-[2,6-dioxopiperidin-3-yl]-1,3-dioxo-2,3-dihydro-1H-isoindol-5-yl}-2,7-diazaspiro[3.5]nonan-7-yl)acetyl]-2-oxo-1-[(1s,3s)-3-(piperidin-1-yl)cyclobutyl]-1,2-dihydrospiro[indole-3,4′-piperidin]-6-yl}-3-(propan-2-yl)-3H-imidazo[4,5-c]pyridine-4-yl)amino]-4-fluoro-2-methyl-N-(propan-2-yl)benzamide] yielded a Dmax of less than 45%.
For `Cc1cc(F)c(Nc2nc(-c3ccc4c(c3)N([C@H]3C[C@@H](N5CCCCC5)C3)C(=O)C43CCN(C(=O)C4CN(C5CCN(c6ccc7c(c6)C(=O)N(C6CCC(=O)NC6=O)C7=O)CC5)C4)CC3)cc3ncn(C(C)C)c23)cc1C(=O)NC(C)C` (stereo partly shown) [Example 24, 5-[(6-{1′-[1-(1-{2-[2,6-dioxopiperidin-3-yl]-1,3-dioxo-2,3-dihydro-1H-isoindol-5-yl}piperidin-4-yl)azetidine-3-carbonyl]-2-oxo-1-[(1s,3s)-3-(piperidin-1-yl)cyclobutyl]-1,2-dihydrospiro[indole-3,4′-piperidin]-6-yl}-3-(propan-2-yl)-3H-imidazo[4,5-c]pyridin-4-yl)amino]-4-fluoro-2-methyl-N-(propan-2-yl)benzamide] the value was less than 45%; for `Cc1cc(F)c(Nc2nc(-c3ccc4c(c3)N([C@H]3C[C@@H](N5CCCCC5)C3)C(=O)C43CCN(C(=O)C4CCN(C(=O)C5CCC(Nc6cccc7c6C(=O)N(C6CCC(=O)NC6=O)C7=O)CC5)C4)CC3)cc3ncn(C(C)C)c23)cc1C(=O)NC(C)C` (stereo partly drawn) [Example 26, 4-fluoro-2-methyl-5-[(6-{2-oxo-1′-[1-[(1R,4R)-4-({2-[2,6-dioxopiperidin-3-yl]-1,3-dioxo-2,3-dihydro-1H-isoindol-4-yl}amino)cyclohexanecarbonyl]pyrrolidine-3-carbonyl]-1-[(1s,3s)-3-(piperidin-1-yl)cyclobutyl]-1,2-dihydrospiro[indole-3,4′-piperidin]-6-yl}-3-(propan-2-yl)-3H-imidazo[4,5-c]pyridin-4-yl)amino]-N-(propan-2-yl)benzamide], 45 to 65%; for `Cc1cc(F)c(Nc2nc(-c3ccc4c(c3)N([C@H]3C[C@@H](N5CCCCC5)C3)C(=O)C43CCN(C(=O)C4CCN(C(=O)[C@H]5CC[C@@H](Nc6cccc7c6C(=O)N(C6CCC(=O)NC6=O)C7=O)CC5)C4)CC3)cc3ncn(C(C)C)c23)cc1C(=O)NC(C)C` (stereo partly drawn) [Example 27, 4-fluoro-2-methyl-5-[(6-{2-oxo-1-[(1s,3s)-3-(piperidin-1-yl)cyclobutyl]-1′-[1-[(1S,4S)-4-({2-[2,6-dioxopiperidin-3-yl]-1,3-dioxo-2,3-dihydro-1H-isoindol-4-yl}amino)cyclohexanecarbonyl]pyrrolidine-3-carbonyl]-1,2-dihydrospiro[indole-3,4′-piperidin]-6-yl}-3-(propan-2-yl)-3H-imidazo[4,5-c]pyridin-4-yl)amino]-N-(propan-2-yl)benzamide], less than 45%.
For `Cc1cc(F)c(Nc2nc(-c3ccc4c(c3)N(C3CC(N5CCCCC5)C3)C(=O)C43CCN(C(=O)CN4CC5(CCN(c6ccc7c(c6)C(=O)N(C6CCC(=O)NC6=O)C7=O)CC5)C4)CC3)cc3ncn(C(C)C)c23)cc1C(=O)NC(C)C` (stereo not shown) [Example 28, 5-[(6-{1′-[2-(7-{2-[2,6-dioxopiperidin-3-yl]-1,3-dioxo-2,3-dihydro-1H-isoindol-5-yl}-2,7-diazaspiro[3.5]nonan-2-yl)acetyl]-2-oxo-1-[(1s,3s)-3-(piperidin-1-yl)cyclobutyl]-1,2-dihydrospiro[indole-3,4′-piperidin]-6-yl}-3-(propan-2-yl)-3H-imidazo[4,5-c]pyridin-4-yl)amino]-4-fluoro-2-methyl-N-(propan-2-yl)benzamide] the value was less than 45%; for `Cc1cc(F)c(Nc2nc(-c3ccc4c(c3)N([C@H]3C[C@@H](N5CCCCC5)C3)C(=O)C43CCN(C(=O)CC4CCCN(CC5CCN(c6ccc7c(c6)C(=O)N(C6CCC(=O)NC6=O)C7=O)C5)C4)CC3)cc3ncn(C(C)C)c23)cc1C(=O)NC(C)C` (stereo partly drawn) [Example 29, 5-{[6-(1′-{2-[(3S)-1-({1-[2-(2,6-dioxopiperidin-3-yl)-1,3-dioxo-2,3-dihydro-1H-isoindol-5-yl]pyrrolidin-3-yl}Methyl)piperidin-3-yl]acetyl}-2-oxo-1-[(1s,3s)-3-(piperidin-1-yl)cyclobutyl]-1,2-dihydrospiro[indole-3,4′-piperidin]-6-yl)-3-(propan-2-yl)-3H-imidazo[4,5-c]pyridin-4-yl]amino}-4-fluoro-2-methyl-N-(propan-2-yl)benzamide], 45 to 65%; for `Cc1cc(F)c(Nc2nc(-c3ccc4c(c3)N([C@H]3C[C@@H](N5CCCCC5)C3)C(=O)C43CCN(C(=O)C4CCN(C(=O)C5CC(Nc6cccc7c6C(=O)N(C6CCC(=O)NC6=O)C7=O)C5)C4)CC3)cc3ncn(C(C)C)c23)cc1C(=O)NC(C)C` (stereo partly shown) [Example 30, 4-fluoro-2-methyl-5-[(6-{2-oxo-1-[(1s,3s)-3-(piperidin-1-yl)cyclobutyl]-1′-[1-[(1s,3s)-3-({2-[2,6-dioxopiperidin-3-yl]-1,3-dioxo-2,3-dihydro-1H-isoindol-4-yl}amino)cyclobutanecarbonyl]pyrrolidine-3-carbonyl]-1,2-dihydrospiro[indole-3,4′-piperidin]-6-yl}-3-(propan-2-yl)-3H-imidazo[4,5-c]pyridin-4-yl)amino]-N-(propan-2-yl)benzamide], less than 45%.
In the case of `Cc1cc(F)c(Nc2nc(-c3ccc4c(c3)N([C@H]3C[C@@H](N5CCCCC5)C3)C(=O)C43CCN(C(=O)CC4CCCN(CC5CCN(c6cccc7c6C(=O)N(C6CCC(=O)NC6=O)C7=O)C5)C4)CC3)cc3ncn(C(C)C)c23)cc1C(=O)NC(C)C` (stereo partly drawn) [Example 31, 5-{[6-(1′-{2-[(3S)-1-{[1-{2-[2,6-dioxopiperidin-3-yl]-1,3-dioxo-2,3-dihydro-1H-isoindol-4-yl}pyrrolidin-3-yl]methyl}piperidin-3-yl]acetyl}-2-oxo-1-[(1s,3s)-3-(piperidin-1-yl)cyclobutyl]-1,2-dihydrospiro[indole-3,4′-piperidin]-6-yl)-3-(propan-2-yl)-3H-imidazo[4,5-c]pyridin-4-yl]amino}-4-fluoro-2-methyl-N-(propan-2-yl)benzamide] it was greater than 65%.
